Entries after “also recorded” stand apart in the source; their conditions may differ.
How the values were obtained:
[1] = test system: A375 human malignant melanoma xenografts; experiment: Antitumor activity in A375 human malignant melanoma xenograft model (tumor volume); assay type: in vivo; conditions: single agent at highest dose: E7389 3.0 mg/kg i.v. Q7Dx2; E7080 15 mg/kg p.o. Q1Dx14; female athymic mice
Source text: Following randomization, drug treatment was initiated.
A value of P<0.05 was considered statistically significant.

[2] = test system: NCI-H1993 human non-small cell lung cancer xenografts; experiment: Antitumor activity in NCI-H1993 human non-small cell lung cancer xenografts (tumor volume); assay type: in vivo, mice; conditions: single treatment: E7389 1.5 mg/kg i.v. Q7Dx2; E7080 10 mg/kg p.o. Q1Dx12
Experimental: (§1) Human non-small cell lung cancer cell lines, NCI-H1993 and PC-9, were maintained in monolayer cultures in RPMI-1640 medium supplemented with 10% Fetal Bovine Serum and 1% of Penicillin-Streptomycin-Amphotericin at 37° C. in a 5% CO2 humidified incubator. On the day of inoculation, cells were harvested by Trypsinization, washed, and mixed 1:1 (v/v) with medium/GelTrex. NCI-H1993 and PC-9 human non-small cell lung cancer cells (10×10^6 cells per animal) were inoculated subcutaneously near the right axillary area using a 26-gauge needle in a 0.1 mL volume in female immuncompromised mice (Mouse: BALB/c Slc nu/nu; Japan SLC, Inc.).
(§2) The experiment consisted of a no inject control group, a single agent drug-treated group for either E7389 (1.5 mg/kg) or E7080 (10 mg/kg), and combination drug-treated groups. Each group was composed of five mice. […] Following randomization, drug treatment was initiated. E7389 (1.5 mg/kg) was intravenously administered weekly for two weeks (Q7Dx2). E7080 was orally administered daily for 12 days (Q1Dx12). Both drugs were administered at a volume of 0.1 mL per 10 g body weight.
(§3) Tumor volume was determined by caliper measurements (mm) using the formula Tumor volume (mm^3)=length (mm)×width^2(mm^2)×½
(§4) The mean±SD for tumor volume for each experimental group was calculated. […]

[3] = test system: PC-9 human non-small cell lung cancer xenografts; experiment: Antitumor activity in PC-9 human non-small cell lung cancer xenografts (tumor volume); assay type: in vivo, mice; conditions: single treatment: E7389 1.5 mg/kg i.v. Q7Dx2; E7080 10 mg/kg p.o. Q1Dx12
Experimental: as §1, §2, §3, §4

in vivo = conditions: athymic, mouse
[4] = Relative body weight change in A375 xenograft study; assay type: in vivo, mice; conditions: E7389 alone at 3.0 mg/kg i.v. Q7Dx2
Experimental: The experiment consisted of a vehicle-treated control group, a single agent drug-treated group for either E7389 or E7080, and three combination drug-treated groups (summarized in Table 1). Each group was composed of six mice for a total of 48 mice on the first day of treatment. […] Following randomization, drug treatment was initiated. E7080 was orally administered daily for 14 days (Q1Dx14) at a volume of 0.1 mL per 10 g body weight. E7389 (0.05 mg/kg) was intravenously administered daily for 14 days. In the combination group, E7389 was administered three hours after oral administration of E7080. […]
The general health of the mice was monitored daily. Tumor volume was determined by caliper measurements (mm) using the formula (1×w^2)/2=mm^3, where 1 and w refer to the larger and smaller perpendicular dimensions collected at each measurement. Tumor dimensions and body weight were recorded twice per week starting the first day of treatment. Relative body weight was calculated as follows: Relative body weight=(body weight on day of measurement)/(body weight on first day of treatment).
The data generated consisted of group mean body weights at each measurement and group mean tumor volumes at each measurement. The mean±SEM for tumor volume and relative body weight for each experimental group was calculated.

COc1cc2nccc(Oc3ccc(NC(=O)NC4CC4)c(Cl)c3)c2cc1C(N)=O.CS(=O)(=O)O [E7080, 4-[3-chloro-4-[[(cyclopropylamino)carbonyl]amino]phenoxy]-7-methoxy-6-quinolinecarboxamide, methanesulfonate (1:1)]
antitumor effect (tumor volume) [1]: tumor growth delay, but not tumor regression | antitumor activity (tumor volume) [2]: significant antitumor activity | antitumor activity (tumor volume) [3]: significant antitumor activity | MTD at 14 days (in vivo): 15 mg/kg

C=C1C[C@@H]2CC[C@@]34C[C@H]5O[C@@H]6[C@@H](O3)[C@H]3O[C@H](CC[C@@H]3O[C@H]6[C@H]5O4)CC(=O)C[C@@H]3[C@@H](OC)[C@@H](C[C@H](O)CN)O[C@H]3C[C@H]3O[C@@H](CC[C@@H]1O2)C[C@@H](C)C3=C.CS(=O)(=O)O [E7389, (2R,3R,3aS,7R,8aS,9S,I0aR,11S,12R,13aR,13bS,15S,18S,21S,24S,26R,28R,29aS)-2-[(2S)-3-amino-2-hydroxypropyl]hexacosahydro-3-methoxy-26-methyl-20,27-bis(methylene)-11,15:18,21:24,28-triepoxy-7,9-ethano-12,15-methano-9H,15H-furo[3,2-i]furo[2′,3′:5,6]pyrano[4,3-b][1,4]dioxacyclopentacosin-5(4H)-one, methanesulfonate (salt)]
antitumor effect (tumor volume) [1]: tumor growth delay, but not tumor regression; also recorded: strong antitumor activity | relative body weight change [4]: Body weight loss was observed | antitumor activity (tumor volume) [2]: significant antitumor activity | antitumor activity (tumor volume) [3]: significant antitumor activity | MTD at 14 days (in vivo; other: E7389 i.v., E7080 p.o.): 3 mg/kg

— patent US9549922B2, “Use of eribulin and lenvatinib as combination therapy for treatment of cancer” (priority 2013, dated 2017)
